Results on 16 molecules are retold here after ChEMBL document CHEMBL4265881, “Synthesis and bioactivity of 3,5-dimethylpyrazole derivatives as potential PDE4 inhibitors” (Bioorg Med Chem Lett, 2018).

For test [1], the target named is 3',5'-cyclic-AMP phosphodiesterase 4B (Homo sapiens, UniProt Q07343). Put plainly: Inhibition of human U937 cells-derived PDE4B using [3H]-cAMP as substrate measured after 30 mins.
Test [2] can be described thus: Inhibition of PDE4 in human PBMC assessed as reduction in LPS-stimulated TNFalpha release preincubated for 30 mins followed by LPS stimulation for 18 hrs by TR-FRET assay. Type of test: cell-based. For orientation: In TR-FRET formats the signal depends on donor and acceptor labels being close together.
Test [3] deals with 3',5'-cyclic-AMP phosphodiesterase 4D (Homo sapiens, UniProt Q08499). Nature of the test: Inhibition of human U937 cells-derived PDE4D using [3H]-cAMP as substrate measured after 30 mins.
The next test concerns Mus musculus. Put plainly: Anti-inflammatory activity in Swiss albino mouse model of sepsis assessed as inhibition of LPS-induced TNFalpha release at 10 mg/kg, po. Type of test: functional.
In a further test the test system is Rattus norvegicus. Put plainly: Anti-inflammatory activity in Sprague-Dawley rat model of LPS-induced asthma/COPD assessed as inhibition of neutrophilia in BALF at 10 mg/kg, po. Type of test: functional.

In general, IC50 refers to the concentration that inhibits the measured activity by half. A word on the inhibition in vivo: it is the drop in the measured response relative to a control, in per cent.

Structures are written as SMILES.

Sequence of 3',5'-cyclic-AMP phosphodiesterase 4D (Q08499 whole entry): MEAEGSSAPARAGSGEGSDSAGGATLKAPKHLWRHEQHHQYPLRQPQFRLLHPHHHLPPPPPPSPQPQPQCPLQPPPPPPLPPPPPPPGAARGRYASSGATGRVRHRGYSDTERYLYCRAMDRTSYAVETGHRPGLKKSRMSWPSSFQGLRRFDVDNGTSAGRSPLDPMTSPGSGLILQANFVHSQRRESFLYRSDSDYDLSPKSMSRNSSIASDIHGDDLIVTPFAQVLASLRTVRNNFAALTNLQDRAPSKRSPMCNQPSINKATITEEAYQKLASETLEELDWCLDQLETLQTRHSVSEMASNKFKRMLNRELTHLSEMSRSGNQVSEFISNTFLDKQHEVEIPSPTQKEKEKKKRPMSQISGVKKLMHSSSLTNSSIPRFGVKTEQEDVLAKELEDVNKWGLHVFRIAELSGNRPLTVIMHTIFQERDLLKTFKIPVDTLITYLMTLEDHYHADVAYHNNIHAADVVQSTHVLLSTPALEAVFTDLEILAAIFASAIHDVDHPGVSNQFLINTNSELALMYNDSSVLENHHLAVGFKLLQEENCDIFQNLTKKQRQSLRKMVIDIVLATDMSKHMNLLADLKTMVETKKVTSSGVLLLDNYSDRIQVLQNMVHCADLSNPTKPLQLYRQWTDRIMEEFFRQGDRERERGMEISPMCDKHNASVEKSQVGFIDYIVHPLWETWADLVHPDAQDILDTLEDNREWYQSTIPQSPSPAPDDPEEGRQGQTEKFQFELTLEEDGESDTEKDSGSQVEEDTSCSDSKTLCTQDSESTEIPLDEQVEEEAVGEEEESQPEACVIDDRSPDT
Sequence of 3',5'-cyclic-AMP phosphodiesterase 4B (Q07343 whole entry): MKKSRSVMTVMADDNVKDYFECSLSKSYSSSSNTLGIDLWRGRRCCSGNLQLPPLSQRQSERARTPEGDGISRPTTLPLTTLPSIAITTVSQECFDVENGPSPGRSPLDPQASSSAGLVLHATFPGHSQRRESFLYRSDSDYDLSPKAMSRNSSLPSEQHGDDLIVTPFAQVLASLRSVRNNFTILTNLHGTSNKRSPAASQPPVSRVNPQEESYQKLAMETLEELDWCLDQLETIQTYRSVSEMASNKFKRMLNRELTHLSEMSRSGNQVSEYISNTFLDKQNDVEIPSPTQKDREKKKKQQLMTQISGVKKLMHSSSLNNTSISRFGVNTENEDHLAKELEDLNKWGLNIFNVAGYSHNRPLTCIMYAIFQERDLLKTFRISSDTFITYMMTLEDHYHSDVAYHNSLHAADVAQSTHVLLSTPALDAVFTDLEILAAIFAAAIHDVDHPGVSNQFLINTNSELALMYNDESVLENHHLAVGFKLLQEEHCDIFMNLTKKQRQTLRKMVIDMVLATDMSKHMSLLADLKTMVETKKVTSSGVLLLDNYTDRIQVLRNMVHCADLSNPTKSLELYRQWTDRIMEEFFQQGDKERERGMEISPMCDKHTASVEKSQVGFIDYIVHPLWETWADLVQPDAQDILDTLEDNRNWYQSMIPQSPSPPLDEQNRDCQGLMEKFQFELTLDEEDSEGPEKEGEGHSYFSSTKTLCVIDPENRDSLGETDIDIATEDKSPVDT

As to `Cc1cc(C)n(C(=O)c2ccc(-c3ccccc3Cl)o2)n1`, the 50% inhibitory concentration (IC50) in test [1] turned out to be 52.4 µM; in test [2], 112 µM.
Regarding `Cc1cc(C)n(C(=O)c2ccc(-c3ccc(F)cc3)o2)n1`, the values for the IC50 in test [3], in test [1] and in test [2] were 49.3 µM, 7.2 µM and 24.3 µM, respectively.
Take `Cc1cc(C)n(C(=O)c2ccc(-c3ccccc3F)o2)n1`: the IC50 was found to be 45.3 µM in test [1] and 98.2 µM in test [2].
On to `Cc1cc(C)n(C(=O)c2ccc(-c3cccc(F)c3)o2)n1`, for which the half-inhibitory concentration (IC50) in test [1] came out at 20.2 µM; in test [2], 70.8 µM.
Consider `Cc1ccc(-c2ccc(C(=O)n3nc(C)cc3C)o2)cc1`, for which the IC50 in test [3] came to 52.9 µM; in test [1], 8.4 µM; in test [2], 37.1 µM.
Regarding `Cc1cc(C)n(C(=O)c2ccc(-c3c(F)cccc3F)o2)n1`, the IC50 in test [3] worked out at 88.2 µM; in test [1] it was 14.5 µM; in test [2] it was 88.7 µM.
As to `Cc1cc(C)n(C(=O)c2ccc(-c3ccc(Br)cc3)o2)n1`, the half-maximal inhibitory concentration (IC50) was 51.1 µM in test [1] and 154 µM in test [2].
Consider `Cc1cc(C)n(C(=O)c2ccc(-c3ccc(Cl)cc3)o2)n1`, for which the results for the IC50 in test [3], in test [1] and in test [2] were 26.4 µM, 3.9 µM and 25.1 µM, respectively.
On to `Cc1cc(C)n(C(=O)c2ccc(-c3ccccc3[N+](=O)[O-])o2)n1`, for which the IC50 came to 62.7 µM in test [1] and 168 µM in test [2].
Turning to `Cc1cc(C)n(C(=O)c2ccc(-c3cccc([N+](=O)[O-])c3)o2)n1`, the figures for the IC50 in test [1] and in test [2] were 35.9 µM and 69.3 µM, respectively.
For the molecule `Cc1cc(C)n(C(=O)c2ccc(-c3ccc([N+](=O)[O-])cc3)o2)n1`, the IC50 in test [3] amounted to 87.3 µM; in test [1] it was 15.4 µM; in test [2] it was 41.7 µM.
Consider `Cc1cc(C)n(C(=O)c2ccc(-c3cccc(Cl)c3)o2)n1`, for which the concentration for half-maximal inhibition (IC50) came to 20.9 µM in test [1] and 58.4 µM in test [2].
For `COc1ccc(-c2ccc(C(=O)n3nc(C)cc3C)o2)cc1`, the half-inhibitory concentration (IC50) stood at 9.6 µM in test [3], 1.7 µM in test [1] and 10.4 µM in test [2]. Also, the figures for the inhibition in vivo at 10 mg/kg in the test on Mus musculus and in the test with Rattus norvegicus were 43.1% and 36.5%, respectively.
Consider `Cc1cc(C)n(C(=O)c2ccc(-c3ccccc3)o2)n1`, for which the concentration for half-maximal inhibition (IC50) in test [1] stood at 70.3 µM; in test [2], 178 µM.
`Cc1cc(C)n(C(=O)c2ccc(-c3ccc(F)cc3F)o2)n1`: the IC50 in test [3] was determined as 19.6 µM; in test [1], 3.2 µM; in test [2], 19.2 µM. For the same molecule, the inhibition in vivo at 10 mg/kg came to 29.6% with Mus musculus and 24.2% in the test with Rattus norvegicus.
As for `COc1ccc(C2CNC(=O)C2)cc1OC1CCCC1` (centres undefined) [ROLIPRAM], the results for the inhibition in vivo at 10 mg/kg in the test on Mus musculus and with Rattus norvegicus were 41.7% and 32.8%, respectively. For the same molecule, the IC50 in test [2] came to 16.5 µM.
